# In patent US20190151307A1 (priority 2017, published 2019):
# Tests used:
# [1] = intracellular TFV-DP with TDF; cited from earlier work
# [2] = Phase 1 study: steady-state plasma PK of TAF and TFV after B/F/TAF BID with rifampin vs B/F/TAF QD alone; format: in vivo, human; settings: BID TAF administration (B/F/TAF BID+RIF), compared to prior PK results of TDF-containing regimens, FIG. 2
# Procedure: This study evaluated the steady state pharmacokinetics of TAF, TAF metabolite TFV, and emtricitabine (FTC) following coadministration of bictegravir/emtricitabine/tenofovir alafenamide (B/F/TAF) fixed dose combination (FDC) twice daily with rifampin 600 mg once daily compared to those of B/F/TAF FDC once daily administered alone.
# In this Phase 1, open-label, parallel multiple dose study, healthy volunteers were assigned to one of two cohorts (cohort 1 (n=26) or cohort 2 (n=26)) and received study treatments beginning on day 1 and continuing for 28 days (cohort 1) or 35 days (cohort 2).
# The duration of the study was approximately 57 days for cohort 1 and approximately 44 days for cohort 2. […]
# Pharmacokinetic assessments of plasma PK and PBMC PK were evaluated. […] PK parameters of TFV-DP and FTC-TP in PBMCs were calculated as applicable and included AUCtau, Ctrough, Cmax, accumulation ratios, and t1/2 with and without RIF. […]
# Plasma concentrations of TAF and TFV were determined and pharmacokinetics were evaluated as applicable.
# Plasma concentrations were determined using validated liquid chromatography-tandem mass spectrometry (LC/MS/MS) assays. Intracellular PBMC TFV-DP concentrations were determined via a validated LC/MS/MS assay combined with PBMC cell counting via a DNA quantitation procedure. […]
# HIV = settings: cited from earlier work
# clinical = format: in vivo, human; settings: single dose BIC 75 mg, fed, RIF 600 mg
# Procedure: This was a Phase 1, open-label, multiple-dose, multiple-cohort, adaptive design study in healthy adult subjects.
# The duration of dosing was 9 days (with a 3-day washout between the first and second doses of study treatment). The study duration (not including screening) was approximately 21 days. The study had n=15 subjects.
# In addition, the following multiple-dose plasma PK parameters of GS-9883 were calculated, as applicable: Ctau, Cmax, Clast, AUCtau, Tmax, Tlast, t1/2, and CL/F.
# Serial blood samples for intensive PK sampling were collected at the following time points relative to the morning dose of study drug(s) administered: 0 (pre-dose) and 0.5, 1, 1.5, 2, 3, 4, 6, 8, 10, 12, 16, 24, 36, 48, 72, and 96 hours post-dose on Days 1 and 15. Daily pre-dose PK sampling was collected at days 10 and 14.
# The ANOVA model included treatment as a fixed effect and subject as a random effect.
# [3] = peripheral blood mononuclear cells (PBMC) isolated from patients; cited from earlier work
smiles,measurement,setting,value
"CC(C)OC(=O)OCOP(=O)(CO[C@H](C)Cn1cnc2c(N)ncnc21)OCOC(=O)OC(C)C [TDF, 9-[(R)-2-[[bis[[(isopropoxycarbonyl)oxy]methoxy]phosphinyl]methoxy]propyl]adenine]",historical steady-state TFV-DP threshold effectiveness concentration,[1],85-222 fmol/10^6 cells
"CC(C)OC(=O)[C@H](C)N[P@](=O)(CO[C@H](C)Cn1cnc2c(N)ncnc21)Oc1ccccc1 [TAF, 9-[(R)-2-[[(S)-[[(S)-1-(isopropoxycarbonyl)ethyl]amino]phenoxyphosphinyl]-methoxy]propyl]adenine]",total overall systemic TFV plasma exposure over 24 hours vs TDF-containing regimens,[2],markedly lower
same,enhancement in anti-HIV activity in cell culture of TAF over TFV,HIV,600 fold
O=C(NCc1c(F)cc(F)cc1F)c1cn2c(c(O)c1=O)C(=O)N1[C@H]3CC[C@H](C3)O[C@@H]1C2 [BIC],half-life,"clinical; human, in vivo, BIC t1/2, plasma, median per text",~18.1 h
same,"BIC % AUCexp, Mean (% CV)",clinical; plasma,3.1%
same,"BIC CL/F, Mean (% CV)",clinical; plasma,545.1 mL/h
same,"BIC Clast, Mean (% CV)",clinical; plasma,192.7 ng/mL
same,BIC Tlast,clinical; plasma,95.93 h
C[C@@H](Cn1cnc2c(N)ncnc21)OCP(=O)(O)OP(=O)(O)OP(=O)(O)O [TFV-DP],intracellular half-life,[3],150 h
